Patent EP4745134A1 (Jiangsu Yahong Meditech Co., Ltd., priority 2023, dated 2025)

Assays:
HCT116-WT cells = assay: Inhibitory activity against cell proliferation (CellTiter Glo, 6 days), HCT116-WT; assay type: cell-based; conditions: 144 h, HCT116-WT cells, 6 days, CellTiter Glo; read-out: HCT116-WT IC50
Procedure: (§1) HCT116-WT (ATCC, CCL-247) and HCT116 MTAP KO (Nanjing Cobioer, CBP75002) cells were seeded into white low-transparency sterile 96-well cell culture plates at a density of 250 cells per well respectively, and the culture medium was McCoy's 5A Medium+10% FBS. The plates were placed under the condition of 37°C and 5% CO2 to be cultured overnight. The cells were treated with 4-fold serially diluted compounds of 8 concentration points starting at an initial concentration of 10000 nM, and the last two columns were used as control wells to which only DMSO was added. The drug-treated cells were further cultured for 6 days. On day 7, CellTiter Glo® reagent was added at 50 uL per well, and after reaction under shaking for 10 minutes at room temperature, the chemiluminescence signals were detected for the well plates through the chemiluminescence detection method using a BIOTEK H1 multifunctional microplate-reader. The IC50 values for inhibition of the compounds on cell viability were calculated in X1fit 5.0 software. Table 2. IC50 values for inhibition of the compounds on HCT116 MTAP KO/WT cell growth

HCT116 MTAP KO cells = assay: Inhibitory activity against cell proliferation (CellTiter Glo, 6 days), HCT116 MTAP KO; assay type: cell-based; conditions: for IC50: Homo sapiens, HCT-116, 144 h, HCT116 MTAP KO cells, 6 days, CellTiter Glo, read-out: HCT116 MTAP KO IC50; for Selectivity HCT 116-WT/ HCT116 MTAP KO: ratio of IC50 HCT116-WT / HCT116 MTAP KO
Procedure: as §1

| SMILES | IC50 (HCT116-WT cells) | IC50 (HCT116 MTAP KO cells) | Selectivity HCT 116-WT/ HCT116 MTAP KO (HCT116 MTAP KO cells) |
| --- | --- | --- | --- |
| Cc1cc2cc(C(=O)N(Cc3ccc(-c4cncs4)cn3)N(C)c3ncccn3)ccc2nc1N [Example 204, 2-amino-N',3-dimethyl-N'-(pyrimidin-2-yl)-N-((5-(thiazol-5-yl)pyridin-2-yl)methyl)quinoline-6-carbohydrazide] | 396 nM | 14 nM | 28.29 |
| Cc1cc2cc(C(=O)N(Cc3ccc(-c4nnn(C)n4)cn3)N(C)c3ncccn3)ccc2nc1N [Example 231, 2-amino-N',3-dimethyl-N-((5-(2-methyl-2H-tetrazol-5-yl)pyridin-2-yl)methyl)-N'-(pyrimidin-2-yl)quinoline-6-carbohydrazide] | 2700 nM | 212 nM | 12.71 |
| Cc1cc2cc(C(=O)N(Cc3ccc(-c4ccc(N5CCC5)nc4)cn3)N(C)c3ncccn3)ccc2nc1N [Example 256, 2-amino-N-((6'-(azetidin-1-yl)-[3,3'-bipyridin]-6-yl)methyl)-N',3-dimethyl-N'-(pyrimidin-2-yl)quinoline-6-carbohydrazide] | 875 nM | 52 nM | 16.83 |
| Cc1cc2nc(N)c3cnn(C)c3c2cc1C(=O)N1CC(O)(C(F)(F)F)CN1c1ncccc1F (stereo not drawn) [Example 355, (4-amino-1,7-dimethyl-1H-pyrazolo[4,3-c]quinolin-8-yl)(2-(3-fluoropyridin-2-yl)-4-hydroxy-4-(trifluoromethyl)pyrazolidin-1-yl)methanone] | 4800 nM | 150 nM | 32.00 |
| CCN(CC)c1ccc(-c2ccc(CN(C(=O)c3ccc4nc(N)c(C)cc4c3)N(C)c3ncccn3)nc2)cn1 [Example 255, 2-amino-N-((6'-(diethylamino)-[3,3'-bipyridin]-6-yl)methyl)-N',3-dimethyl-N'-(pyrimidin-2-yl)quinoline-6-carbohydrazide] | 978 nM | 81 nM | 12.07 |
| Cc1cc2cc(C(=O)N(Cc3ccc(-c4cnn(C(F)(F)F)c4)cn3)N(C)c3ncccc3F)ccc2nc1N [Example 170, 2-amino-N'-(3-fluoropyridin-2-yl)-N ',3-dimethyl-N-((5-(1-(trifluoromethyl)-1 H-pyrazol-4-yl)pyridin-2-yl)methyl)quin oline-6-carbohydrazide] | 640 nM | 35 nM | 18.29 |
| CN(c1ccccc1F)N(Cc1ccc(C(F)(F)F)cn1)C(=O)c1ccc2nc(N)c3cnn(C)c3c2c1 [Example 281, 4-amino-N'-(2-fluorophenyl)-N',1-dimethyl-N-((5-(trifluoromethyl)pyridin-2-yl)methyl)-1H-pyrazolo[4,3-c]quinoline-8-carb ohydrazide] | 42 nM | 3.3 nM | 12.73 |
| Cc1cc2cc(C(=O)N(Cc3ccc(-c4ccc(N5CCNCC5)nc4)cn3)N(C)c3ncccn3)ccc2nc1N [Example 207, 2-amino-N',3-dimethyl-N-((6'-(piperazin-1-yl)-[3,3'-bipyridine]-6-yl)methyl)-N'-(pyrimidin-2-yl)quinoline-6-carbohydrazide] | 488 nM | 26 nM | 18.77 |
| Cc1cc2cc(C(=O)N(Cc3ccc(-c4ccc(N5CCN(C)C(=O)C5)nc4)cn3)N(C)c3ncccn3)ccc2nc1N [Example 258, 2-amino-N',3-dimethyl-N-((6'-(4-methyl-3-oxopiperazin-1-yl)-[3,3'-bipyridin]-6-yl)methyl)-N'-(pyrimidin-2-yl)quinoline-6-carbohydrazide] | 716 nM | 31 nM | 23.10 |
| Cc1cc2nc(N)c3cnn(C)c3c2cc1C(=O)N1CCCN1c1ncc(-c2cnn(C(F)(F)F)c2)cc1F [Example 480, (4-amino-1,7-dimethyl-1H-pyrazolo[4,3-c]quinolin-8-yl)(2-(3-fluoro-5-(1-(trifluor omethyl)-1H-pyrazol-4-yl)pyridin-2-yl)pyrazolidin-1-yl)methanone] | 1770 nM | 55 nM | 32.16 |
| Cc1cc2cc(C(=O)N(Cc3ccc(-c4cnn(C(C)(C)C)c4)cn3)N(C)c3ncccn3)ccc2nc1N [Example 205, 2-amino-N-((5-(1-(tert-butyl)-1H-pyrazol-4-yl)pyridin-2-yl)methyl)-N',3-dimethyl-N'-(pyrimidin-2-yl)quinoline-6-carbohydr azide] | 1170 nM | 58 nM | 20.14 |
| Cc1cc2cc(C(=O)N(Cc3ccc(-c4ccc(N(C)C)nc4)cn3)N(C)c3ncccn3)ccc2nc1N [Example 212, 2-amino-N-((6'-(dimethylamino)-[3,3'-bipyridine]-6-yl)methyl)-N',3-dimethyl-N'-(pyrimidin-2-yl)quinoline-6-carbohydrazide] | 646 nM | 30 nM | 21.53 |
| Cc1cc2cc(C(=O)N(Cc3ccc(-c4nccs4)cn3)N(C)c3ncccn3)ccc2nc1N [Example 234, 2-amino-N',3-dimethyl-N'-(pyrimidin-2-yl)-N-((5-(thiazol-2-yl)pyridin-2-yl)methyl)quinoline-6-carbohydrazide] | 750 nM | 20 nM | 37.50 |
| Cc1cc2cc(C(=O)N(Cc3ccc(-c4ccns4)cn3)N(C)c3ncccn3)ccc2nc1N [Example 210, 2-amino-N-((5-(isothiazol-5-yl)pyridin-2-yl)methyl)-N',3-dimethyl-N'-(pyrimidin-2-yl)quinoline-6-carbohydrazide] | 492 nM | 25 nM | 19.68 |
| [2H]C([2H])([2H])c1cc2cc(C(=O)N(Cc3ccc(-c4nncs4)cn3)N(c3ncccn3)C3CC3)ccc2nc1N [Example 315, N-((5-(1,3,4-thiadiazol-2-yl)pyridin-2-yl)methyl)-2-amino-N'-cyclopropyl-3-(methyl-d3)-N'-(pyrimidin-2-yl)quinoline-6-carbohydrazide] | 1350 nM | 54 nM | 24.96 |

More lines, main results first:

| IC50 (HCT116-WT cells) | IC50 (HCT116 MTAP KO cells) | SMILES | Selectivity HCT 116-WT/ HCT116 MTAP KO (HCT116 MTAP KO cells) |
| --- | --- | --- | --- |
| 503 nM | 42 nM | COCCN(C)c1ccc(-c2ccc(CN(C(=O)c3ccc4nc(N)c(C)cc4c3)N(C)c3ncccn3)nc2)cn1 [Example 254, 2-amino-N-((6'-((2-methoxyethyl)(methyl)amino)-[3,3'-bipyridine]-6-yl)methyl)-N',3-d imethyl-N'-(pyrimidin-2-yl)quinoline-6-carbohydrazide] | 11.98 |
| 466 nM | 30 nM | [2H]C([2H])([2H])c1cc2cc(C(=O)N(Cc3ccc(C(F)(F)F)cn3)N(C)c3ncccc3F)ccc2nc1N [Example 309, 2-amino-N'-(3-fluoropyridin-2-yl)-N'-methyl-3-(methyl-d3)-N-((5-(trifluoromethyl)pyridin-2-yl)methyl)quinoline-6-carbohydrazide] | 15.53 |
| 2530 nM | 139 nM | Cc1cc2cc(C(=O)N(Cc3ccc(C(F)(F)F)cn3)n3ccc4ccccc43)ccc2nc1N [Example 28, 2-amino-N-(1H-indol-1-yl)-3-methyl-N-((5-(trifluoromethyl)pyridin-2-yl)methyl)quinoline-6-carboxamide] | 18.22 |
| 1510 nM | 40 nM | COC1CN(C(=O)c2cc3c(cc2C)nc(N)c2cnn(C)c23)N(c2ncc(Br)cc2F)C1 (stereo not drawn) [Example 438, (4-amino-1,7-dimethyl-1H-pyrazolo[4,3-c]quinolin-8-yl)(2-(5-bromo-3-fluoropyridin-2-yl)-4-methoxypyrazolidin-1-yl)met hanone] | 37.65 |
| 4230 nM | 257 nM | Cc1cc2cc(C(=O)N(Cc3ccc(-c4cn(C)cn4)cn3)N(C)c3ncccn3)ccc2nc1N [Example 194, 2-amino-N',3-dimethyl-N-((5-(1-methyl-1H-imidazol-4-yl)pyridin-2-yl)methyl)-N '-(pyrimidin-2-yl)quinoline-6-carbohydrazide] | 16.46 |
| 3360 nM | 192 nM | Cc1cc2cc(C(=O)N(Cc3ccc(-c4ccc(=O)[nH]c4)cn3)N(C)c3ncccn3)ccc2nc1N [Example 143, 2-amino-N',3-dimethyl-N-((6'-oxo-1',6'-dihydro-[3,3'-bipyridine]-6-yl)methyl)-N'-(pyrimidin-2-yl)quinoline-6-carbohydrazide] | 17.49 |
| 321 nM | 12 nM | COC1(C)CN(C(=O)c2cc3c(cc2C)nc(N)c2cnn(C)c23)N(c2ncccc2F)C1 (stereo not drawn) [Example 428, (4-amino-1,7-dimethyl-1H-pyrazolo[4,3-c]quinolin-8-yl)(2-(3-fluoropyridin-2-yl)-4-methoxy-4-methylpyrazolin-1-yl)methanone] | 26.75 |
| 694 nM | 29 nM | Cc1cc2cc(C(=O)N(Cc3ccc(-c4cccs4)cn3)N(C)c3ncccn3)ccc2nc1N [Example 214, 2-amino-N',3-dimethyl-N'-(pyrimidin-2-yl)-N-((5-(thien-2-yl)pyridin-2-yl)methyl) quinoline-6-carbohydrazide] | 23.93 |
